{"source": "patent US9827275B2", "about": "“Immunostimulatory compositions and methods of use thereof” (Comvita New Zealand Ltd., priority 2010, dated 2017)", "key": {"THP-1 cells": {"tested_on": "THP-1 cells", "assay": "TNF-α release/production from THP-1 cell line", "format": "cell-based", "details": "FIG. 8, THP-1 cell line", "method": "In this example the ability of three New Zealand honeys to elicit the release of TNF-α from the monocytic cell lines THP-1 and U937 were investigated and the bioactive component responsible identified.\nIn this example, the effect or otherwise of pure AGP was analysed to determine how AGP influences cytokine stimulation as exemplified by TNF-α production from THP-1 cell line.\nVarying doses of LPS were tested against THP-1 cell line and the cytokine response measured. […] The results further reinforce the presence of type II AG compounds and their influence on inflammation."}, "primed macrophage cells": {"tested_on": "primed macrophage cells", "assay": "cytokine TNFα response of primed macrophage cells", "format": "cell-based", "details": "added alone to primed macrophage cells", "experimental": "Macrophage cells were then matured to a point where they were primed and ready to respond to an input. Adding varying levels of LPS and measuring the cytokine TNFα response confirmed the maturity and readiness of the macrophage cells.\nA variety of different honeys were then added to the primed macrophage cells and the cytokine response measured to determine if there were any trends. ethylglyoxal (MGO) was also added with or without honey to determine if this ingredient of manuka honey also influenced the immune stimulation effects. A sugar solution was also used to determine if this had any effect as well.\nHoney samples (5% (w/v) and LPS (1000 ng/mL) were prepared in water and heated at 80° C. for 30 min in a shaking water bath. After heat processing, further dilutions were performed in RPMI medium and the resulting honey tested for cytokine response."}}, "data": [{"smiles": "CC(=O)C=O", "note": "[MGO, methylglyoxal]", "values": [{"measurement": "pro-inflammatory response", "setting": "THP-1 cells", "value": "no significant pro-inflammatory response"}, {"measurement": "impact on immune stimulation (cytokine response)", "setting": "primed macrophage cells", "value": "no impact"}]}]}
